Measurements taken from article PMC4421829, “Design, Synthesis and Inhibitory Activity of Photoswitchable RET Kinase Inhibitors” (Scientific Reports, 2015).

Molecular target: T1, RET (Homo sapiens, UniProt P07949)
T1 construct: RET tyrosine kinase domain (human recombinant RET expressed in Sf9 insect cells)
T1 sequence (P07949 724-1016 limits assumed): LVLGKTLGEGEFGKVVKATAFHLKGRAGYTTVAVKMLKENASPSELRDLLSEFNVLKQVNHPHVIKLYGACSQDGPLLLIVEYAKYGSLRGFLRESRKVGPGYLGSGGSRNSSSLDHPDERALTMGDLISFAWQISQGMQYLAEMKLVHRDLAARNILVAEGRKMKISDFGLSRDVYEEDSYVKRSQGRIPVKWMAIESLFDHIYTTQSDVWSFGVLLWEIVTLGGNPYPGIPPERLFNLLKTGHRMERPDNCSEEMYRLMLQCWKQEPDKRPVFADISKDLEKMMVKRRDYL
Experiment: luminescent ATP-to-ADP conversion kinase assay (IGF1Rtide substrate, […] ATP), in the dark
Format: biochemical

## CC(C)n1nc(/N=N/c2ccccc2)c2c(N)ncnc21 [compound 4, E-4]
  IC50: 0.15 µM
